Assay results published in the NIST ThermoML archive (doi:10.1021/je800110r).
Numbers after ± are expanded uncertainties.

Conditions: 293.15 K, Liquid, Vibrating tube method

CCCCCCCCCC [decane]
Conditions | mass density [kg/m3]
28146 kPa | 749.4 ± 2.1
28177 kPa | 749.5 ± 2.1
28205 kPa | 749.5 ± 2.1
28236 kPa | 749.5 ± 2.1
28261 kPa | 749.4 ± 2.1
28289 kPa | 749.5 ± 2.1
28321 kPa | 749.5 ± 2.1
28349 kPa | 749.5 ± 2.1
28373 kPa | 749.5 ± 2.1
28405 kPa | 749.5 ± 2.1
28425 kPa | 749.6 ± 2.1
28454 kPa | 749.5 ± 2.1
28482 kPa | 749.6 ± 2.1
28507 kPa | 749.6 ± 2.1
28527 kPa | 749.6 ± 2.1
28552 kPa | 749.5 ± 2.1
28597 kPa | 749.7 ± 2.1
28622 kPa | 749.7 ± 2.1
28643 kPa | 749.6 ± 2.1
28663 kPa | 749.8 ± 2.1
28687 kPa | 749.7 ± 2.1
28712 kPa | 749.7 ± 2.1
28749 kPa | 749.8 ± 2.1
28770 kPa | 749.7 ± 2.1
28807 kPa | 749.8 ± 2.1
28836 kPa | 749.7 ± 2.1
28865 kPa | 749.9 ± 2.1
28886 kPa | 749.9 ± 2.1
28919 kPa | 749.9 ± 2.1
28945 kPa | 749.9 ± 2.1
28974 kPa | 749.9 ± 2.1
28999 kPa | 749.9 ± 2.1
29029 kPa | 749.9 ± 2.1
29050 kPa | 749.9 ± 2.1
29084 kPa | 749.9 ± 2.1
29114 kPa | 750 ± 2.1
29149 kPa | 749.9 ± 2.1
29175 kPa | 750 ± 2.1
29213 kPa | 750 ± 2.1
29232 kPa | 750.1 ± 2.1
29263 kPa | 750.1 ± 2.1
29295 kPa | 750.1 ± 2.1
29326 kPa | 750.1 ± 2.1
29350 kPa | 750.1 ± 2.1
29376 kPa | 750.2 ± 2.1
29396 kPa | 750.1 ± 2.1
29419 kPa | 750.1 ± 2.1
29439 kPa | 750.2 ± 2.1
29470 kPa | 750.3 ± 2.1
29494 kPa | 750.2 ± 2.1
29518 kPa | 750.3 ± 2.1
29549 kPa | 750.2 ± 2.1
29574 kPa | 750.3 ± 2.1
29600 kPa | 750.3 ± 2.1
29620 kPa | 750.3 ± 2.1
29645 kPa | 750.3 ± 2.1
29668 kPa | 750.3 ± 2.1
29701 kPa | 750.3 ± 2.1
29724 kPa | 750.4 ± 2.1
29760 kPa | 750.4 ± 2.1
29780 kPa | 750.5 ± 2.1
29804 kPa | 750.3 ± 2.1
29828 kPa | 750.5 ± 2.1
29852 kPa | 750.4 ± 2.1
29877 kPa | 750.4 ± 2.1
29904 kPa | 750.4 ± 2.1
29931 kPa | 750.5 ± 2.1
29960 kPa | 750.4 ± 2.1
29996 kPa | 750.5 ± 2.1
30021 kPa | 750.6 ± 2.1
30041 kPa | 750.6 ± 2.1
30078 kPa | 750.6 ± 2.1
30098 kPa | 750.5 ± 2.1
30123 kPa | 750.6 ± 2.1
30144 kPa | 750.7 ± 2.1
30168 kPa | 750.7 ± 2.1
30194 kPa | 750.7 ± 2.1
30219 kPa | 750.7 ± 2.1
30248 kPa | 750.7 ± 2.1
30273 kPa | 750.8 ± 2.1
30294 kPa | 750.7 ± 2.1
30328 kPa | 750.8 ± 2.1
30358 kPa | 750.8 ± 2.1
30393 kPa | 750.9 ± 2.1
30419 kPa | 750.8 ± 2.1
30455 kPa | 750.9 ± 2.1
30479 kPa | 750.8 ± 2.1
30506 kPa | 750.8 ± 2.1
30546 kPa | 750.8 ± 2.1
30560 kPa | 750.8 ± 2.1
30576 kPa | 750.9 ± 2.1
30591 kPa | 750.9 ± 2.1
30604 kPa | 751 ± 2.1
30620 kPa | 750.9 ± 2.1
30641 kPa | 750.9 ± 2.1
30659 kPa | 750.9 ± 2.1
30682 kPa | 751 ± 2.1
30703 kPa | 751.1 ± 2.1
30721 kPa | 751 ± 2.1
30739 kPa | 751 ± 2.1
30752 kPa | 751 ± 2.1
30771 kPa | 751 ± 2.1
30795 kPa | 751 ± 2.1
30813 kPa | 751.1 ± 2.1
30826 kPa | 751.1 ± 2.1
30845 kPa | 751.1 ± 2.1
30866 kPa | 751 ± 2.1
30887 kPa | 751.1 ± 2.1
30908 kPa | 751.1 ± 2.1
30924 kPa | 751 ± 2.1
30942 kPa | 751.1 ± 2.1
30955 kPa | 751.1 ± 2.1
30977 kPa | 751.1 ± 2.1
30995 kPa | 751.1 ± 2.1
31014 kPa | 751.1 ± 2.1
31028 kPa | 751.2 ± 2.1
31044 kPa | 751.1 ± 2.1
31057 kPa | 751.1 ± 2.1
31074 kPa | 751.2 ± 2.1
31090 kPa | 751.2 ± 2.1
31106 kPa | 751.2 ± 2.1
31130 kPa | 751.3 ± 2.1
31147 kPa | 751.3 ± 2.1
31168 kPa | 751.3 ± 2.1
31188 kPa | 751.3 ± 2.1
31207 kPa | 751.3 ± 2.1
31224 kPa | 751.3 ± 2.1
31243 kPa | 751.2 ± 2.1
31260 kPa | 751.3 ± 2.1
31279 kPa | 751.3 ± 2.1
31295 kPa | 751.4 ± 2.1
31314 kPa | 751.3 ± 2.1
31339 kPa | 751.3 ± 2.1
31356 kPa | 751.4 ± 2.1
31375 kPa | 751.4 ± 2.1
31391 kPa | 751.3 ± 2.1
31412 kPa | 751.3 ± 2.1
31425 kPa | 751.4 ± 2.1
31441 kPa | 751.4 ± 2.1
31455 kPa | 751.5 ± 2.1
31472 kPa | 751.3 ± 2.1
31489 kPa | 751.4 ± 2.1
31503 kPa | 751.5 ± 2.1
31520 kPa | 751.5 ± 2.1
31542 kPa | 751.4 ± 2.1
31564 kPa | 751.5 ± 2.1
31581 kPa | 751.5 ± 2.1
31601 kPa | 751.5 ± 2.1
31615 kPa | 751.4 ± 2.1
31636 kPa | 751.4 ± 2.1
31651 kPa | 751.6 ± 2.1
31670 kPa | 751.5 ± 2.1
31687 kPa | 751.5 ± 2.1
31710 kPa | 751.7 ± 2.1
31724 kPa | 751.8 ± 2.1
31738 kPa | 751.5 ± 2.1
31755 kPa | 751.5 ± 2.1
31774 kPa | 751.6 ± 2.1
31797 kPa | 751.5 ± 2.1
31811 kPa | 751.6 ± 2.1
31831 kPa | 751.7 ± 2.1
31847 kPa | 751.7 ± 2.1
31864 kPa | 751.7 ± 2.1
31885 kPa | 751.7 ± 2.1
31907 kPa | 751.7 ± 2.1
31928 kPa | 751.6 ± 2.1
31944 kPa | 751.6 ± 2.1
31965 kPa | 751.9 ± 2.1
31989 kPa | 751.7 ± 2.1
32005 kPa | 751.8 ± 2.1
32027 kPa | 751.7 ± 2.1
32043 kPa | 751.7 ± 2.1
32061 kPa | 751.8 ± 2.1
32081 kPa | 751.9 ± 2.1
32100 kPa | 751.8 ± 2.1
32124 kPa | 751.9 ± 2.1
32148 kPa | 751.9 ± 2.1
32167 kPa | 751.8 ± 2.1
32191 kPa | 751.8 ± 2.1
32207 kPa | 751.9 ± 2.1
32230 kPa | 751.9 ± 2.1
32246 kPa | 751.8 ± 2.1
32266 kPa | 751.9 ± 2.1
32282 kPa | 751.8 ± 2.1
32299 kPa | 751.9 ± 2.1
32324 kPa | 752 ± 2.1
32345 kPa | 752 ± 2.1
32362 kPa | 751.9 ± 2.1
32379 kPa | 751.9 ± 2.1
32400 kPa | 751.9 ± 2.1
32420 kPa | 752 ± 2.1
32445 kPa | 752 ± 2.1
32462 kPa | 751.9 ± 2.1
32478 kPa | 752 ± 2.1
32498 kPa | 752 ± 2.1
32520 kPa | 752.1 ± 2.1
32537 kPa | 751.9 ± 2.1
32555 kPa | 752.1 ± 2.1
32572 kPa | 752.1 ± 2.1
32592 kPa | 752.2 ± 2.1
32612 kPa | 752 ± 2.1
32637 kPa | 752.2 ± 2.1
32657 kPa | 752.1 ± 2.1
32673 kPa | 752.1 ± 2.1
32690 kPa | 752.1 ± 2.1
32716 kPa | 752.1 ± 2.1
32733 kPa | 752.2 ± 2.1
32750 kPa | 752.1 ± 2.1
32770 kPa | 752.1 ± 2.1
32790 kPa | 752.2 ± 2.1
32808 kPa | 752.2 ± 2.1
32825 kPa | 752.3 ± 2.1
32848 kPa | 752.2 ± 2.1
32865 kPa | 752.4 ± 2.1
32888 kPa | 752.3 ± 2.1
32911 kPa | 752.2 ± 2.1
32930 kPa | 752.4 ± 2.1
32953 kPa | 752.4 ± 2.1
32972 kPa | 752.4 ± 2.1
32993 kPa | 752.3 ± 2.1
33014 kPa | 752.3 ± 2.1
33038 kPa | 752.3 ± 2.1
33061 kPa | 752.4 ± 2.1
33080 kPa | 752.4 ± 2.1
33103 kPa | 752.3 ± 2.1
33132 kPa | 752.4 ± 2.1
33150 kPa | 752.5 ± 2.1
33180 kPa | 752.4 ± 2.1
33203 kPa | 752.4 ± 2.1
33218 kPa | 752.4 ± 2.1
33239 kPa | 752.5 ± 2.1
33260 kPa | 752.3 ± 2.1
33279 kPa | 752.4 ± 2.1
33304 kPa | 752.5 ± 2.1
33334 kPa | 752.5 ± 2.1
33349 kPa | 752.4 ± 2.1
33373 kPa | 752.6 ± 2.1
33397 kPa | 752.7 ± 2.1
33416 kPa | 752.7 ± 2.1
33440 kPa | 752.5 ± 2.1
33465 kPa | 752.6 ± 2.1
33484 kPa | 752.5 ± 2.1
33514 kPa | 752.6 ± 2.1
33536 kPa | 752.6 ± 2.1
33555 kPa | 752.6 ± 2.1
33576 kPa | 752.6 ± 2.1
33606 kPa | 752.7 ± 2.1
33631 kPa | 752.8 ± 2.1
33649 kPa | 752.6 ± 2.1
33667 kPa | 752.8 ± 2.1
33692 kPa | 752.7 ± 2.1
33710 kPa | 752.8 ± 2.1
33738 kPa | 752.8 ± 2.1
33760 kPa | 752.7 ± 2.1
33791 kPa | 752.9 ± 2.1
33807 kPa | 752.8 ± 2.1
33829 kPa | 752.8 ± 2.1
33848 kPa | 752.8 ± 2.1
33896 kPa | 752.8 ± 2.1
33919 kPa | 752.9 ± 2.1
33934 kPa | 752.9 ± 2.1
33961 kPa | 753 ± 2.1
33976 kPa | 752.9 ± 2.1
33992 kPa | 752.9 ± 2.1
34010 kPa | 752.9 ± 2.1
34029 kPa | 752.9 ± 2.1
34050 kPa | 753 ± 2.1
34069 kPa | 753 ± 2.1
34090 kPa | 752.9 ± 2.1
34112 kPa | 753 ± 2.1
34129 kPa | 753.1 ± 2.1
34148 kPa | 753 ± 2.1
34176 kPa | 753 ± 2.1
34198 kPa | 752.9 ± 2.1
